Consider two molecules from PubChem BioAssay AID486 (Columbia University Molecular Screening Center, 2006).

Calls of active or inactive are those of the source.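 The calls were made as follows: active = ranking score of 15 or more out of 100, based on fitted potency or summed per-dose inhibition deviations; inactive = the rest.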

The test concerns exon1htt(103Q)-mCFP cells, aggregate imaging, high-content. Nature of the test: mutant huntingtin aggregate clearance potency, dose response, imaging, exon1htt(103Q)-mCFP cells, high-content imaging (AID 486).

Usually IC50 stands for the concentration that inhibits the measured activity by half. With `COc1cccc(/C=N/n2c(C)nc3ccccc32)c1OC`, the IC50 was > 8 µM (inactive).

Consider `COc1cccc(-c2nnc3sc(C4CCCCC4)nn23)c1`, for which the IC50 was > 4 µM (inactive).
